Data set [1] in a line: Particle size measurement with a particle size distribution measuring device (Microtruck X100). Type of data set: physicochemical. The procedure:
Preferably, the particles of the drug contained in the composition according to the present invention have a cumulative 50% particle diameter of not more than 1.5 μm and a cumulative 90% particle diameter of not more than 3.0 μm. More preferably, the cumulative 50% particle diameter and the cumulative 90% particle diameter are not more than 1.0 μm and not more than 2.0 μm, respectively. In the present invention, when a cumulative curve is determined by presuming the total volume of a powder population, of which the particle size distribution is analyzed, to be 100%, the particle diameter of a point at which the cumulative curve is 50% and the particle diameter of a point at which the cumulative curve is 90% are “cumulative 50% particle diameter” and “cumulative 90% particle diameter” (μm), respectively.
The diameters of drug particles obtained by the grinding can be measured by a laser diffraction/scattering-type particle size distribution measuring machine. Specifically, for example, Microtruck (tradename) sold by NIKKISO Co., Ltd. is preferred. […]
The cumulative 50% particle diameter of bulk drug particles in the fine granules in Examples 4 and 5 and Comparative Examples 3 to 5 was measured with a particle size distribution measuring device (manufacturer: NIKKISO Co., Ltd., model: Mircotruck X100).

Data set [2] in a line: Dissolution test (1), paddle method, 1% aqueous polysorbate 80. The format is physicochemical. The conditions noted are these: three hr after the start of the dissolution; 50 mg drug, 100 rpm, 900 mL 1% aqueous polysorbate 80. The procedure: A dissolution test was carried out for the suspension produced in Example 1 (grinding conditions 3) and a liquid obtained by suspending the ground bulk drug obtained in Comparative Example 1 in water.
Each of the suspensions in an amount corresponding to 50 mg of the 22β-methoxyolean-12-ene-3β,24(4β)-diol bulk drug was accurately weighed, and a test was carried out by a dissolution test method, second method (paddle method), specified in Japanese Pharmacopoeia, at a rotation speed of 100 rpm (rotation speed of paddle) using 900 mL of a 1% aqueous polysorbate 80 solution as a test solution. After 15 min, 30 min, 60 min, and 180 min from the start of dissolution, 5 mL of the test solution was collected and was filtered by a membrane filter having a pore diameter of 0.2 μm to give measurement samples. The samples were analyzed by high-performance liquid chromatography (manufacturer: Shimadzu Seisakusho Ltd., model:LC-10ATvp) to determine dissolution rate for each sample.

In the case of `CO[C@@H]1CC(C)(C)C[C@H]2C3=CC[C@@H]4[C@@]5(C)CC[C@H](O)[C@](C)(CO)[C@@H]5CC[C@@]4(C)[C@]3(C)CC[C@@]12C` [Comparative Example 1, 22β-Methoxyolean-12-ene-3β, 24(4β)-diol], in data set [1] (ground with jet mill at 0.54 MPa, dispersed in 0.01% aqueous sodium laurylsulfate solution), the “cumulative 50% particle diameter of the ground bulk drug” value is on record as 2.5 μm. The dissolution rate in data set [2] is reported as 10%. Regarding `CO[C@@H]1CC(C)(C)C[C@H]2C3=CC[C@@H]4[C@@]5(C)CC[C@H](O)[C@](C)(CO)[C@@H]5CC[C@@]4(C)[C@]3(C)CC[C@@]12C` [22β-methoxyolean-12-ene-3β,24(4β)-diol], the “cumulative 50% particle diameter” value in data set [1] (bulk drug before grinding) is “about 50 μm”.

Source of the values: US20110294901A1, “FINELY PULVERIZED PHARMACEUTICAL COMPOSITION” (priority 2009, published 2011).
